13 compounds from ChEMBL document CHEMBL3272098, “Reactions of 2-acyloxyisobutyryl halides with nucleosides. 7. Synthesis and biological evaluation of some 2,2'-anhydro-1(3',5'-di-O-acyl-beta-D-arabinofuranosyl)cytosine hydrochlorides” (J Med Chem, 1976) can be followed below.

Series [1] deals with HeLa. The experiment in a line: Cytotoxicity against human HeLa cells after 48 hrs by Coulter counting analysis. Type of series: functional. As to conditions: read-out: ED50 (the source's name).
For series [2], the system named is BGM. The experiment in a line: Antiviral activity against Poliovirus type 1 Mahoney infected in African green monkey BGM cells after 5 days by pulp disk diffusion assay. Type of series: functional, cell-based. As to conditions: Human poliovirus 1 Mahoney.
Series [3] deals with unidentified influenza virus. The experiment in a line: Antiviral activity against Influenza virus Ao/WNS infected in monkey LLC-MK2 cells after 5 days by pulp disk diffusion assay. Type of series: functional, organism-based.
For series [4], the system named is L1210. The experiment in a line: Antitumor activity against mouse L1210 cells allografted in BDF1 mouse assessed as increase in life span at 50 mg/kg, ip administered 24 hrs post-implantation measured up to 30 days relative to control. The series is classed as functional. As to conditions: route intraperitoneal.
The subject of series [5] is L1210. The experiment in a line: Antitumor activity against mouse L1210 cells allografted in BDF1 mouse assessed as increase in life span at 200 mg/kg, ip administered 24 hrs post-implantation measured up to 30 days relative to control. The series is classed as functional. Particulars: route intraperitoneal.
Series [6] deals with Herpesviridae sp. The experiment in a line: Antiviral activity against Herpes simplex virus HF infected in African green monkey BGM cells after 6 days by plaque reduction assay. As to conditions: 144 h, read-out: ED50 (the source's name). Type of series: functional.
The test system of series [7] is L1210. The experiment in a line: Antitumor activity against mouse L1210 cells allografted in BDF1 mouse assessed as increase in life span at 500 mg/kg, ip administered 24 hrs post-implantation measured up to 30 days relative to control. Type of series: functional. As to conditions: route intraperitoneal.
Series [8] deals with L1210. The experiment in a line: Antitumor activity against mouse L1210 cells allografted in po dosed BDF1 mouse administered 24 hrs post-implantation. The series is classed as functional, organism-based.
Series [9] deals with Vaccinia virus. The experiment in a line: Antiviral activity against Vaccinia virus IHD infected in African green monkey BGM cells after 6 days by plaque reduction assay. As to conditions: Orthopoxvirus vaccinia, 144 h, read-out: ED50 (the source's name). The series is classed as functional.
Series [10] concerns L1210. The experiment in a line: Antitumor activity against mouse L1210 cells allografted in BDF1 mouse assessed as survival at 50 mg/kg, ip administered 24 hrs post-implantation after 30 days. The series is classed as functional, organism-based. Details: dose 50 mg/kg.
The test system of series [11] is Measles morbillivirus. The experiment in a line: Antiviral activity against Measles virus infected in African green monkey BGM cells after 5 days by pulp disk diffusion assay. Type of series: functional, organism-based.
The subject of series [12] is Mus musculus. The experiment in a line: Toxicity in BDF1 mouse allografted with mouse L1210 cells assessed as reduction in average life span at 200 mg/kg, ip administered 24 hrs post-implantation measured up to 30 days relative to control. Type of series: organism-based. More on the design: dose 200 mg/kg, route intraperitoneal; scale not given: the % may be the effect or the level left. Particulars: in vivo.

For series [13], the system named is Mus musculus. The experiment in a line: Toxicity in BDF1 mouse allografted with mouse L1210 cells assessed as survival at 200 mg/kg, ip administered 24 hrs post-implantation after 30 days. More on the design: dose 200 mg/kg, route intraperitoneal. Type of series: organism-based. As to conditions: in vivo, 720 h.
Series [14] has as its system L1210. The experiment in a line: Antitumor activity against mouse L1210 cells allografted in BDF1 mouse assessed as increase in life span at 1000 mg/kg, ip administered 24 hrs post-implantation measured up to 30 days relative to control. Type of series: functional. As to conditions: route intraperitoneal.
Series [15] deals with L1210. The experiment in a line: Antitumor activity against mouse L1210 cells allografted in BDF1 mouse assessed as survival at 200 mg/kg, ip administered 24 hrs post-implantation after 30 days. Type of series: functional, organism-based. More on the design: dose 200 mg/kg.
For series [16], the system named is L1210. The experiment in a line: Antitumor activity against mouse L1210 cells allografted in BDF1 mouse assessed as survival at 1000 mg/kg, ip administered 24 hrs post-implantation after 30 days. The series is classed as functional, organism-based. More on the design: dose 1000 mg/kg.
The test system of series [17] is Mus musculus. The experiment in a line: Toxicity in BDF1 mouse allografted with mouse L1210 cells assessed as survival at 1000 mg/kg, ip administered 24 hrs post-implantation after 30 days. Type of series: organism-based. More on the design: dose 1000 mg/kg, route intraperitoneal. As to conditions: in vivo, 720 h.
Series [18] has as its system Mus musculus. The experiment in a line: Toxicity in BDF1 mouse allografted with mouse L1210 cells assessed as reduction in average life span at 1000 mg/kg, ip administered 24 hrs post-implantation measured up to 30 days relative to control. Type of series: organism-based. More on the design: dose 1000 mg/kg, route intraperitoneal; scale not given: the % may be the effect or the level left. Particulars: in vivo.

Series [19] has as its system L1210. The experiment in a line: Antitumor activity against mouse L1210 cells allografted in BDF1 mouse assessed as survival at 500 mg/kg, ip administered 24 hrs post-implantation after 30 days. Type of series: functional, organism-based. More on the design: dose 500 mg/kg.

Molecules are shown by their SMILES. pEC50: −log10 of the molar value. Active and inactive are the calls of the source. The calls are words filed in the database; no cut-off is given here.

On to `CCCCCCCCCCC(=O)OC[C@H]1O[C@@H]2[C@@H](Oc3nc(=N)ccn32)[C@@H]1OC(=O)CCCCCCCCCC.Cl`, for which the EC50 in series [1] is 0.32 µg/mL. The outcome in [2], in series [3], in series [8], in series [10] and in [11] was inactive. Moreover, the ILS at 50 mg/kg in series [4] came to 88%. In series [5], the ILS at 200 mg/kg was more than 179%. Besides, the pEC50 in series [6] was 6.18; in [9], 6.39. Further, the ILS at 500 mg/kg in [7] was more than 20%.
`CC(=O)O[C@H]1[C@@H]2Oc3nc(=N)ccn3[C@@H]2O[C@@H]1COC(=O)C12CC3CC(CC(C3)C1)C2.Cl`: the Activity is 100% in series [12] and “Toxic” in series [13]. Besides, the EC50 in series [1] was 0.2 µg/mL. Also, the result in [2], in series [3], in series [8] and in series [11] was inactive. The pEC50 in series [6] was 5.68; in [9], 6.19.
Take `CCCCCCCCCCCCCCCCCCCCCC(=O)OC[C@H]1O[C@@H]2[C@@H](Oc3nc(=N)ccn32)[C@@H]1OC(=O)CCCCCCCCCCCCCCCCCCCCC.Cl`: the EC50 in series [1] is more than 10 µg/mL. Moreover, the result in series [2], in [3], in [8], in [15], in series [16] and in series [10] was inactive. Further, in [11], the result was inactive. Also, the ILS at 50 mg/kg in series [4] was 15%. Further, the ILS at 200 mg/kg in series [5] amounted to 55%. Also, the ILS at 1000 mg/kg in series [14] worked out at 139%. The pEC50 in series [6] and in series [9] was less than 4.52 in each case.
`CCCCCCCCCCCCCCCC(=O)OC[C@H]1O[C@@H]2[C@@H](Oc3nc(=N)ccn32)[C@@H]1OC(=O)CCCCCCCCCCCCCCC.Cl`: the EC50 in series [1] turned out to be 4 µg/mL. Also, the result in series [2], in series [3], in [8], in series [15] and in [11] was inactive. Besides, in series [5], the ILS at 200 mg/kg was determined as 231%. The pEC50 in [6] was less than 4.52; in series [9] it was 4.55.
As for `CC(=O)O[C@H]1[C@@H]2Oc3nc(=N)ccn3[C@@H]2O[C@@H]1COC(=O)C(C)(C)C.Cl`, the EC50 in series [1] turned out to be 0.2 µg/mL. Besides, the result in series [2], in series [3], in series [8], in [15] and in series [11] was inactive. In addition, in series [5], the ILS at 200 mg/kg turned out to be 18%. Besides, the pEC50 in series [6] is 5.49; in [9], 6.11.
Consider `CCCCCCCCCC(=O)OC[C@H]1O[C@@H]2[C@@H](Oc3nc(=N)ccn32)[C@@H]1OC(=O)CCCCCCCCC.Cl`, for which the Activity in series [12] is recorded as 69%; in series [17], “Toxic”; in series [18], 72%; in series [13], “Toxic”. In addition, the EC50 in series [1] was determined as 0.2 µg/mL. For the same compound, the result in series [2], in [3], in series [8], in series [10] and in [11] was inactive. Further, the increase in life span (ILS) at 50 mg/kg in series [4] turned out to be 14%. In addition, the pEC50 in series [6] is 5.96; in series [9], 6.49.
Take `CCCCCCCC(=O)OC[C@H]1O[C@@H]2[C@@H](Oc3nc(=N)ccn32)[C@@H]1OC(=O)CCCCCCC.Cl`: the EC50 in series [1] is 0.1 µg/mL. For the same compound, the outcome in series [2], in [3], in [8], in series [15] and in [11] was inactive. Moreover, the ILS at 200 mg/kg in series [5] stood at 28%. Further, the pEC50 in [6] is 5.87; in series [9] it was 6.25.
As to `CCCCCCCCCCCCCCCCCCCC(=O)OC[C@H]1O[C@@H]2[C@@H](Oc3nc(=N)ccn32)[C@@H]1OC(=O)CCCCCCCCCCCCCCCCCCC.Cl`, in series [1], the EC50 is 2.5 µg/mL. The outcome in [2], in series [3], in series [8], in series [15], in series [16] and in series [10] was inactive. Moreover, the result in series [11] was inactive. Further, the ILS at 50 mg/kg in series [4] was 8%. Besides, the ILS at 200 mg/kg in series [5] is 31%. Further, the ILS at 1000 mg/kg in [14] is 107%. The pEC50 in series [6] and in series [9] was less than 4.52 in each case.
As to `CC(=O)O[C@H]1[C@@H]2Oc3nc(=N)ccn3[C@@H]2O[C@@H]1COC(=O)C12C=CC(C)(CC1)CC2.Cl`, the EC50 in series [1] was found to be 0.2 µg/mL. In addition, the result in series [2], in series [3], in series [8], in series [15] and in [11] was inactive. Further, the increase in lifespan (ILS) at 200 mg/kg in [5] turned out to be 20%. Moreover, the pEC50 in series [6] is 5.76; in [9], 6.40.
For the compound `CC(=O)OC[C@H]1O[C@@H]2[C@@H](Oc3nc(=N)ccn32)[C@@H]1OC(C)=O.Cl`, the EC50 in series [1] came out at 0.2 µg/mL. Further, the outcome in series [2], in series [3], in series [8], in series [15] and in series [11] was inactive. In addition, in series [5], the ILS at 200 mg/kg was 7%. In addition, the pEC50 is 5.62 in series [6] and 6.16 in [9].
On to `CCCCCCCCC(=O)OC[C@H]1O[C@@H]2[C@@H](Oc3nc(=N)ccn32)[C@@H]1OC(=O)CCCCCCCC.Cl`, for which the results for the Activity in series [12] and in series [13] were 88% and “Toxic”, respectively. Also, in series [1], the EC50 is 0.06 µg/mL. Also, the outcome in [2], in series [3], in series [8], in series [10] and in [11] was inactive. The ILS at 50 mg/kg in series [4] was determined as 14%. For the same compound, the pEC50 was 6.38 in [6] and 6.49 in [9].
With `CCCCCCCCCCCCCCCCCC(=O)OC[C@H]1O[C@@H]2[C@@H](Oc3nc(=N)ccn32)[C@@H]1OC(=O)CCCCCCCCCCCCCCCCC.Cl`, the EC50 in series [1] was 3.8 µg/mL. Also, the outcome in [2], in series [3], in [8], in series [15], in series [10] and in series [11] was inactive. The increase in lifespan (ILS) at 50 mg/kg in series [4] is 68%. In series [5], the ILS at 200 mg/kg was 125%. Moreover, the ILS at 1000 mg/kg in series [14] was more than 255%. The pEC50 in series [6] and in [9] was less than 4.52 throughout. In addition, the result in [16] was Active.
With `Cl.N=c1ccn2c(n1)O[C@H]1[C@H](O)[C@@H](CO)O[C@H]12` [ANCITABINE HYDROCHLORIDE], in series [1], the EC50 turned out to be 0.06 µg/mL. Further, the result in [2], in series [3], in series [19], in [8], in series [15] and in series [16] was inactive. For the same compound, the result in [11] was inactive. The ILS at 200 mg/kg in series [5] is 25%. Besides, the increase in life span (ILS) at 1000 mg/kg in [14] was 89%. The results for the pEC50 in [6] and in series [9] were 6.15 and 6.39, respectively. For the same compound, the ILS at 500 mg/kg in [7] turned out to be 67%.
